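The compound was tested at five concentrations on cells cultured in 96-well plates, with a 48-hour exposure period. Here, GI50 denotes the concentration required for 50% inhibition of growth. TGI marks complete inhibition of growth.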
Legend:
Assay in all cases: NCI anticancer screen, dose series, 48 h
SK-MEL-2 melanoma = test system: SK-MEL-2 melanoma
COLO 205 colon = test system: COLO 205 colon
SNB-19 CNS = test system: SNB-19 CNS
A498 renal = test system: A498 renal
OVCAR-8 ovarian = test system: OVCAR-8 ovarian
NCI-H226 lung = test system: NCI-H226 lung
UACC-62 melanoma = test system: UACC-62 melanoma
SF-295 CNS = test system: SF-295 CNS
MOLT-4 leukemia = test system: MOLT-4 leukemia
HCC-2998 colon = test system: HCC-2998 colon

SMILES	TGI (SK-MEL-2 melanoma) [µM]	TGI (COLO 205 colon) [µM]	TGI (SNB-19 CNS) [µM]	TGI (A498 renal) [µM]	TGI (OVCAR-8 ovarian) [µM]	TGI (NCI-H226 lung) [µM]	TGI (UACC-62 melanoma) [µM]	TGI (SF-295 CNS) [µM]	TGI (MOLT-4 leukemia) [µM]	TGI (HCC-2998 colon) [µM]	GI50 (SK-MEL-2 melanoma) [µM]	GI50 (A498 renal) [µM]	GI50 (NCI-H226 lung) [µM]	GI50 (UACC-62 melanoma) [µM]	GI50 (HCC-2998 colon) [µM]	GI50 (MOLT-4 leukemia) [µM]	GI50 (COLO 205 colon) [µM]	GI50 (SNB-19 CNS) [µM]	GI50 (OVCAR-8 ovarian) [µM]	GI50 (SF-295 CNS) [µM]
COc1cccc(C2C(C(=O)O)=C(CO)Oc3cc4c(cc32)OCO4)c1 (stereo not drawn)	> 100	> 100	> 100	> 100	> 100	> 100	> 100	> 100	> 100											
COc1ccc2c(c1)O[C@H]1c3ccc(O)cc3OC[C@@H]21	72.7	57	> 100		> 100	59.3	29.3	> 100	55.2	53										
O=C(N1CCC(CN=c2cc3n(-c4ccc(Cl)cc4)c4ccccc4nc-3cc2Nc2ccc(Cl)cc2)CC1)N1CC1	2.04			3.61		74.2	3.47		3.91	1.58	0.632	1.75	23.6	1.92	0.632	0.792				
O=NNc1cnccn1	> 1250	> 1250	> 1250	> 1250	> 1250	> 1250	> 1220	> 1250	876	> 1250										
BrCCC[P+](c1ccccc1)(c1ccccc1)c1ccccc1	82.2	4.16	> 100	> 100	> 100	> 100	64.2	> 100	> 94.6	> 100										
CCN(CC)CCC(=O)c1ccccc1	> 100		> 100		58	> 100			42.2	> 100										
CCOC(=O)C1(C(=O)OCC)CSC1		> 100	> 100	> 100	> 100	> 100		> 100	> 100	0.853										
CCSc1nc(N2CCCCC2)c2cn[nH]c2n1	> 100	56.8	> 100	41	> 100	51.3	47.1	> 100		> 100	39.8	10.5	15.3	18.8	42.6		21.3	45.6	43.6	48.2
CC(=O)NC(CCCCNC(=O)OC(C)(C)C)C(=O)O (stereo not drawn)		> 100	> 100	> 100	> 100		> 100	> 100	> 100	> 100										
COC(=O)C1=COC2OC3/C(=C\c4ccc(O)c(OC)c4)C(=O)OC34C=CC1C24 (stereo not drawn)	23.7	43.8	35.3	45.4	37.7	29.2	36.4	32.5	> 100	22.9										
CN(C)CS/C(N)=N\C(O)C(Cl)(Cl)Cl (stereo not drawn)	> 100		> 100	> 100	> 100	> 100	> 100	> 100	> 100	> 100										
Cn1c(=O)c2c(ncn2CCSS(=O)(=O)O)n(C)c1=O	> 100	> 100	> 100	> 100	> 100	> 100	> 100	> 100												
CC(=O)[O-].[Ni].c1ccc(/C(=N\Nc2ccccn2)c2ccccn2)cc1	24.9		54	36.3	31.6	47.6	18.8	26.8	24.3	19.8						0.076	0.0121			
CC(=O)[O-].CC(=O)[O-].O=C(N/N=C/c1cc(Cl)cc(Cl)c1[OH2+])c1ccncc1.[Zn+2]		> 100	> 100	> 100	> 100	> 100	> 100	> 100	> 100	> 100										
c1ccc(SC(Sc2ccccc2)c2ccc3c(c2)OCO3)cc1	> 100		> 100	> 100	> 100	> 100	> 100	> 100	> 100											
CCOc1ccc(N=Nc2ccc3oc(=O)c(/C(C)=N\NC(=O)CC(=O)Nc4ccc(Cl)cc4)cc3c2)cc1	9.32	> 100	> 100		34.4	> 100	28.9	34.3	28.8	35.2										
O=C(O)c1cncc(C(=O)O)c1	> 100	> 100	> 100	> 100	> 100	> 100	> 100	> 100	> 100											
O=c1[nH]cc(N(CCCl)CCCl)c(=O)[nH]1	204	157	400	191	201	179	60.6	246	28.3	136										
C=C(CN(C)C)C(=O)c1cc(C)ccc1C	37.8	3.53	39.2	43.5	66.5	27.8	29.7	34.1	3.86	29.9										

Reference: PubChem BioAssay (NCI)
